The values that follow come from patent US5310667A (priority 1989, dated 1994).

The subject of assay [1] is E. coli SR481 (aroA-) carrying pMON8152. In words: Growth on minimal medium containing glyphosate. The class given is cell-based. Here is the method: The heterologous expression system was tested with a known variant to see if glyphosate resistant variants of petunia EPSPS could be selected. […] That was achieved by replacing the 660 bp EcoRI-HindIII region from both vectors with the 660 bp EcoRI-HindIII region from pMON9566 which contained the glycine (101) to alanine mutation.

The test system of assay [2] is E. coli SR481 (aroA-) carrying pMON8105. In words: Growth on minimal medium containing glyphosate. Type of assay: cell-based. An excerpt: (§1) Chromosomal DNA isolated from the E. coli strain SR20 (GM42 hfr, his-, dam3-) was digested completely with MboI. The MboI fragments were cloned into the BglII site of plasmid pMON9564. The BglII site is in a multilinker located upstream of the promoterless petunia EPSPS coding sequence which had been tailored for expression in E. coli. The ligation mixture was used to transform E. coli strain SR481, the aroA- variant lacking endogenous EPSPS activity. Forty-one colonies were obtained which contained MboI fragments with sufficient promoter activity to express the Petunia EPSPS cDNA, complementing the aroA defect in SR481 and supporting cell growth on minimal medium. The 41 colonies were streaked individually onto MOPS minimal medium containing glyphosate at 1, 5, 10, 15 and 20 μM concentrations. The amount of cell growth on increasing concentrations of glyphosate was used as a measure of the relative promoter strength of each MboI fragment expressing the petunia EPSPS coding sequence. To further characterize each of the MboI promoter fragments, plasmid miniprep DNA was prepared by the alkaline lysis method from each of the 41 colonies and was digested individually with EcoRI, BamHI, HindIII, ClaI and NcoI. Those restriction enzymes were chosen because they cut within, or flank the petunia EPSPS coding sequence and would be used for mobilizing mutagenized fragments. Therefore, ideal promoter fragments would not contain restriction sites for any of those enzymes. There were 8 MboI fragments with varying degrees of promoter activity which lacked restriction sites for the enzymes listed above. Two of them, pMON8105 and pMON8143, were selected for further characterization. Both plasmids complemented the aroA defect and supported the growth of SR481 on minimal medium containing up to 1 mM (pMON8105) and 20 mM (pMON8143) glyphosate.

Assay [3] deals with E. coli SR481 (aroA-) carrying pMON8143. In words: Growth on minimal medium containing glyphosate. The class given is cell-based.
Description: as §1

The test system of assay [4] is E. coli JM101 culture #215 (pMON8186). Briefly: Growth curve analysis in liquid MOPS medium with glyphosate. The class given is cell-based. To be noted: MOPS medium containing 10 mM glyphosate, 37° C.
Description: This growth curve analysis functioned as a tertiary screen and was performed in the following way:
Glyphosate resistant colonies were picked off the selection plates and inoculated individually into precultures containing 1 ml of MOPS medium and 50 μg/ml carbenicillin. The precultures were then grown to saturation by shaking the cultures overnight at 37° C. The next morning the density of each culture was determined by withdrawing a 100 μl aliquot from each and diluting it 10 fold with the addition of 900 μl MOPS medium, then reading the optical density at a wavelength of 660 nm in a spectrophotometer. The saturated precultures were then diluted to 1% by adding 50 μl from each saturated preculture to 5 ml of MOPS media containing 0, 5 or 10 mM glyphosate. The diluted precultures were grown in glass culture tubes fitted with stainless steel closures, rotating on a wheel at 37° C. The glass culture tubes were designed for direct reading in a Klett-Summerson photoelectric colorimeter, which was used to monitor the growth of the bacterial cultures at approximately 3 hour intervals.
For assay [5], the target named is T1, pMON8186 encoded petunia EPSP synthase variant (glycine (101) to alanine and glycine (144) to aspartic acid) (Petunia hybrida, UniProt P11043, G173A/G216D).
T1 construct: GGT codon for glycine (144) in the mature petunia EPSP synthase; made in house; host or cells: E. coli SR481
T1 sequence (P11043 73-516 G173A/G216D): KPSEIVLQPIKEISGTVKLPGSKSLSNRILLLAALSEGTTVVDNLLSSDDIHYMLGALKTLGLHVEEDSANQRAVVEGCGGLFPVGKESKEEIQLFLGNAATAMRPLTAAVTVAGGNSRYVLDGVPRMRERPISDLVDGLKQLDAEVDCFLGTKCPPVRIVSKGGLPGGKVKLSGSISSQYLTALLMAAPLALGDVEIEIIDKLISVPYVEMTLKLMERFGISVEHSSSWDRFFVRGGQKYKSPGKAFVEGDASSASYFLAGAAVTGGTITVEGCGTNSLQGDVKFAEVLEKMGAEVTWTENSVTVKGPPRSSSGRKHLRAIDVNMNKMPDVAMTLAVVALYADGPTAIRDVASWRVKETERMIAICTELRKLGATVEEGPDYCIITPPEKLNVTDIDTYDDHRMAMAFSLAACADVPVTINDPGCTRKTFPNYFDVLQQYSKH
In words: EPSP synthase kinetic constants (appKi glyphosate, appKm PEP). Type of assay: biochemical. The protocol: The balance of the #215 preculture (~750 μl) was used to inoculate 2 ml of MOPS medium containing 50 μg/ml carbenicillin and was shaken overnight at 37° C. to reach saturation. Plasmid DNA was isolated from an aliquot of the saturated culture using an alkaline lysis procedure. The plasmid was designated pMON8186. An aliquot of the pMON8186 plasmid was used to transform the E. coli host SR481 (described above) and reselected on MOPS medium containing 10 mM glyphosate and 50 μg/ml carbenicillin. A single glyphosate resistant colony of pMON8186 was picked off the selection plate and used to inoculate 3 ml of 2XYT bacterial medium containing 50 μg/ml carbenicillin. The culture was then aerated on rotating wheel at 37° C. until saturated, then it was used to inoculate a larger 500 ml culture. The large culture was grown to saturation by shaking it overnight at 37° C. in a water bath. The bacterial cells were lysed and the extracts were assayed for EPSPS activity.
Specifically, the bacterial cell paste was washed twice with 0.9% saline, suspended in buffer (100 mM Tris-HCl, 5 mM benzamidine HCl) and passed twice through the French Pressure Cell at 1000 psi. The cell extract was separated from the cells by centrifuging at 15,000 x gravity for 10 mins. at 5° C. It was desalted using Sephadex G-50 (Pharmacia, Piscataway, N.J.). The desalted extract was assayed for EPSP synthase activity as follows:
To an assay mix (40 μl) containing shikimate-3-phosphate (2 mM), ^14 C-phosphoenolpyruvate (1 mM, 1.2 mCi/mmol), ammonium molybdate (0.1 mM), potassium fluoride (5 mM) in 50 mM HEPES-KOH, pH 7, was added the extract and incubated at 25° C. for 2 mins. The reaction was quenched by the addition of 50 μl of 50 μl of 90% ethanol/0.1M acetic acid, pH 4.5. […] The radioactivity of the eluent was monitored using a Radiomatic Flo-One Beta Instrument. […] The EPSP synthase activity was determined by measurement of the conversion of ^14 C-PEP to ^14 C-EPSP synthase, both of which are resolved under the above conditions of chromatography. The protein content of the extract was determined by the method of Bradford (Biorad Labs, Calif.). The specific activity of the extract is expressed as nanomoles of EPSP synthase formed/min/mg protein.
Kinetic constants (appKm PEP and appKi glyphosate) were determined for EPSP synthase as described below. Substrate kinetic parameters were determined at pH 7.0 in 50 mM HEPES (N-[2-hydroxyethyl]piperazine-N'-[2-ethanesulfonic acid]) buffer in the presence of 2 mM S3P and varying amounts of ^14 C-PEP (10 μM-400 μM), for 2.0 minutes at 25° C. Reactions were quenched with 100 mM Na Acetate in ethanol, pH 4.5, centrifuged and analyzed for product EPSP formation by HPLC with flow radioactivity detection. […]

A value given as a limit tells only on which side of the number the result lay.

For `O=C(O)CNCP(=O)(O)O` [glyphosate, N-phosphonomethylglycine], the “glyphosate concentration up to which growth on minimal medium is supported” value is on record as “up to 50 mM” in assay [1], “up to 1 mM” in assay [2] (minimal medium) and at most 20 mM in assay [3]. Also, the “growth on 1 mM glyphosate” value in assay [2] (1 mM glyphosate) is “could not support the growth”. In addition, the “time of growth to saturation” value in assay [4] was at most 11 h. The Ki for glyphosate in assay [5] was found to be 348 µM. In addition, the Ki/Km ratio in assay [5] (Ki glyphosate / Km PEP) is on record as 7.7.
